Non-standard residues stand in square brackets, D forms with d. Residues, ends and D or L forms follow the SMILES beside them. ξ: configuration not given here. ξGly(octyl) = CCCCCCCCC(N)C(=O)O

In data set [1] the target is Delta-type opioid receptor (Homo sapiens, UniProt P41143). Nature of the data set: Displacement of [3H]DPDPE from DOP receptor expressed in CHO-K1 cells after overnight incubation by beta counting method. The format is cell-based.
Data set [2] deals with T1, Mu-type opioid receptor (Homo sapiens, UniProt P35372). Nature of the data set: Displacement of [3H]DAMGO from MOP receptor expressed in CHO-K1 cells after overnight incubation by beta counting method. The format is cell-based.
T1 sequence (P35372 whole entry): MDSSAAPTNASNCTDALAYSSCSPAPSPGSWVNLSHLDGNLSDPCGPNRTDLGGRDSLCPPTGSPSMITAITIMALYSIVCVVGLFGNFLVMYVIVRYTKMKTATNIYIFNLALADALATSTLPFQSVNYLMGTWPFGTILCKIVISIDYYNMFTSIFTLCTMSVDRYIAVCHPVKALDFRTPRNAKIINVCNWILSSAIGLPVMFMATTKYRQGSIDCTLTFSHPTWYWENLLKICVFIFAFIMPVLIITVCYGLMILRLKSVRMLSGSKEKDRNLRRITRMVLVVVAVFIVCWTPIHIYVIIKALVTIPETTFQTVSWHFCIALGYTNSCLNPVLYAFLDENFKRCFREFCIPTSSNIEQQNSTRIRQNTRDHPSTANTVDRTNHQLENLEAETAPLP
Data set [3] addresses T1, Mu-type opioid receptor. Put plainly: Agonist activity at MOP receptor expressed in CHO-K1 cells assessed as inhibition of forskolin-stimulated cAMP accumulation after 30 mins. The class given is functional, cell-based.
A further data set concerns CHO-K1. Put plainly: Selectivity ratio of Ki for DOP receptor expressed in CHO-K1 cells to Ki for MOP receptor expressed in CHO-K1 cells. The format is cell-based.
Data set [4] is described as follows: Half life in human Caco2 cell homogenate at 200 uM by LC/MS analysis. The format is ADME, Colon. The following applies: Caco-2 cell homogenate.
A short description of a further data set: in vitro. The following applies: human, Caco-2.

Delta-type opioid receptor, sequence (P41143 whole entry): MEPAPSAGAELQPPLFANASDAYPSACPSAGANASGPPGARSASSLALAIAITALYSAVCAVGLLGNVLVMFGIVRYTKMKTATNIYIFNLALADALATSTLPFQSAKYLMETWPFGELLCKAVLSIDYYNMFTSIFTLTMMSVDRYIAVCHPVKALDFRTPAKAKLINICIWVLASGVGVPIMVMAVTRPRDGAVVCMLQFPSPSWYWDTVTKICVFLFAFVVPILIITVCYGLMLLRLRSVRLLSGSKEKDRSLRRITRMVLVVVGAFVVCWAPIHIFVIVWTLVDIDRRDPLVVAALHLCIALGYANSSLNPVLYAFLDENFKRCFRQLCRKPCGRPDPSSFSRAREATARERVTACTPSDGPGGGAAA
Description for in vitro: Apparent permeability across human Caco2 cells st 200 uM measured over 150 mins by LC/MS analysis

As to `CCCCCCCCC(N)C(=O)N[C@@H](Cc1ccc(O)cc1)C(=O)N1CCC[C@H]1C(=O)N[C@@H](Cc1c[nH]c2ccccc12)C(=O)N[C@@H](Cc1ccccc1)C(=O)N[C@@H](Cc1ccccc1)C(=O)NCC(=O)N[C@@H](CC(C)C)C(=O)N[C@@H](CCSC)C(N)=O` (stereo partly drawn) (H-[ξGly(octyl)]YPWFFGLM-NH2), the affinity in data set [1] corresponds to a Ki of 1230 nM. For the same molecule, the Ki on Mu-type opioid receptor [2] is 3.87 nM. Further, at Mu-type opioid receptor [3], the IC50 was determined as 45 nM and the inhibition entry was “Dose-dependent effect”. Besides, the Ratio Ki in the data set with CHO-K1 stood at 318. In data set [4], this molecule showed a half-life at 200 µM of 75.8 min. The same molecule came in with a Papp at 2.5 h, 200 µM in “in vitro” of 10.2 ×10⁻⁶ cm/s.

With `CCCCCCCCC(N)C(=O)N[C@@H](Cc1ccc(O)cc1)C(=O)N1CCC[C@H]1C(=O)N[C@@H](Cc1c[nH]c2ccccc12)C(=O)N[C@@H](Cc1ccccc1)C(=O)NCC(=O)N[C@@H](CC(C)C)C(=O)N[C@@H](CCSC)C(N)=O` (stereo partly drawn) (H-[ξGly(octyl)]YPWFGLM-NH2), the Ki in data set [1] turned out to be 2250 nM; on Mu-type opioid receptor [2], 132 nM. In addition, in the data set with CHO-K1, the Ratio Ki worked out at 17. In data set [4], this molecule displayed a half-life at 200 µM of 52.5 min. Also, the Papp at 2.5 h, 200 µM in “in vitro” is 8.08 ×10⁻⁶ cm/s.

In data set [4], `NC(=O)[C@H](Cc1ccccc1)NC(=O)[C@H](Cc1c[nH]c2ccccc12)NC(=O)[C@@H]1CCCN1C(=O)[C@@H](N)Cc1ccc(O)cc1` [ENDOMORPHIN-1] registered a half-life at 200 µM of 5.6 min. This molecule also returned a Papp at 2.5 h, 200 µM in the data set “in vitro” of 1.01 ×10⁻⁶ cm/s.

On to `OC[C@@H](O)[C@@H](O)[C@H](O)[C@H](O)CO` [MANNITOL], for which the Papp at 2.5 h, 200 µM in “in vitro” is 0.488 ×10⁻⁶ cm/s.

For `CC(C)NCC(O)COc1cccc2ccccc12` (stereo not drawn) [PROPRANOLOL], the Papp at 2.5 h, 200 µM in “in vitro” worked out at 30.5 ×10⁻⁶ cm/s.

H-YPWFFGLM-NH2 registered a Ki in data set [1] of 1560 nM. The molecule further showed a Ki on Mu-type opioid receptor [2] of 0.73 nM. Besides, at Mu-type opioid receptor [3], the IC50 worked out at 12 nM and the inhibition entry is “Dose-dependent effect”. Moreover, in the data set on CHO-K1, the Ratio Ki worked out at 2130. For the same molecule, the half-life at 200 µM in data set [4] is 15.6 min. In the data set “in vitro”, the Papp at 2.5 h, 200 µM was determined as 2.04 ×10⁻⁶ cm/s.

Regarding H-YPWFGLM-NH2, the Ki in data set [1] is 1980 nM; on Mu-type opioid receptor [2], 1.6 nM. The Ratio Ki in the data set with CHO-K1 worked out at 1240. In data set [4], this molecule showed a half-life at 200 µM of 10.7 min. The Papp at 2.5 h, 200 µM in the data set “in vitro” is 1.41 ×10⁻⁶ cm/s.
